The source of these data is patent US12678418B2, “Compositions and methods for the treatment of threatened respiratory failure caused by coronavirus infection and disease” (ENCYT TECHNOLOGIES, INC., priority 2020, dated 2026).

In one test the target is T1, MMP1 (Homo sapiens, UniProt P03956).
T1 sequence (P03956 100-469): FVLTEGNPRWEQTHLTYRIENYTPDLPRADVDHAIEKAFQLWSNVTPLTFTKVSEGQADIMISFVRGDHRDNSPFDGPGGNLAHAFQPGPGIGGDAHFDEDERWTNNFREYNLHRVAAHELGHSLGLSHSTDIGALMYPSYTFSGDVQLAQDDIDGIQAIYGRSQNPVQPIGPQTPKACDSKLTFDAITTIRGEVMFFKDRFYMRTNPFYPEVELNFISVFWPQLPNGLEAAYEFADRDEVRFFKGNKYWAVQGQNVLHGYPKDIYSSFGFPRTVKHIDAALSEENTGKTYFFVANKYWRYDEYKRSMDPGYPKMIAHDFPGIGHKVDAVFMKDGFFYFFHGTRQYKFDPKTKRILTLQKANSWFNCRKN
Conditions: read-out: IC50 for MMP1; cited from earlier work.

A further test concerns Neu1 sialidase. Kind of test: Sialidase activity in live RAW-blue macrophage cells, 4-MUNANA substrate (Example 1). The class given is cell-based, mouse. Conditions: inhibitor 200 μg/mL, 0.318 mM 4-MUNANA.
For another test, the target named is MMP13 (Homo sapiens, UniProt P45452). Particulars: cited from earlier work.

`CCN(CC)Cc1cc(C)c(N(Cc2ccccc2)S(=O)(=O)c2ccc(OC)cc2)c(C(=O)NO)c1` [MMP9 inhibitor]: the results for the IC50 on MMP1 and on MMP13 were 1050 nM and 113 nM, respectively. In addition, the “inhibition of sialidase activity associated with S-protein” value in the test with Neu1 sialidase (FIG. 2B) is listed as “inhibited”. For the same compound, in the test with Neu1 sialidase (FIG. 2C), the “inhibition of sialidase activity associated with S-protein (UK variant)” value was “inhibited”.
